According to patent US20230117034A1, “PYRAZOLOTRIAZINES” (Bayer Aktiengesellschaft, priority 2019, published 2023):

What was measured:
CDK12/CycK = CDK12/CycK (Homo sapiens, UniProt Q9NYV4); test: CDK12/CycK high ATP kinase assay (TR-FRET, 2 mM ATP); assay type: biochemical; settings: 2 mM ATP (high ATP); median; read-out: CDK12/CyclinK, 2 mM ATP (high ATP), IC50-[mol/l] (median)
In short: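 Read-out is TR-FRET (Eu-anti-rabbit IgG, anti-phospho-c-Myc Ser62 antibody, streptavidin-XL665) after EDTA stop. Reaction ran 60 min at 22 °C using 1 µM biotin-peptide and high ATP (2 mM) with roughly 0.75 nM recombinant CDK12/CycK, after 15 min compound pre-binding; normalised emission ratios yield IC50.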

[1] = test system: CAL-120, human breast adenocarcinoma cells; test: Proliferation assay CAL-120 (crystal violet, 4 days); assay type: cell-based; settings: Homo sapiens, CAL-120, 96 h, CAL-120 cells, median, read-out: Prolif-CAL-120, IC50-[mol/l] (median)
In short: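 IC50 from a 4-parameter fit of crystal violet absorbance (595 nm), scaled between the day-of-dosing plate (0%) and vehicle cells (100%). MDA-MB-231 or CAL-120 cells were treated for 4 days with 0.01–10 micromol/L compound in 0.1% DMSO after 24 h attachment.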

Chain of CDK12/CycK (Q9NYV4 with tags, fused parts or gaps): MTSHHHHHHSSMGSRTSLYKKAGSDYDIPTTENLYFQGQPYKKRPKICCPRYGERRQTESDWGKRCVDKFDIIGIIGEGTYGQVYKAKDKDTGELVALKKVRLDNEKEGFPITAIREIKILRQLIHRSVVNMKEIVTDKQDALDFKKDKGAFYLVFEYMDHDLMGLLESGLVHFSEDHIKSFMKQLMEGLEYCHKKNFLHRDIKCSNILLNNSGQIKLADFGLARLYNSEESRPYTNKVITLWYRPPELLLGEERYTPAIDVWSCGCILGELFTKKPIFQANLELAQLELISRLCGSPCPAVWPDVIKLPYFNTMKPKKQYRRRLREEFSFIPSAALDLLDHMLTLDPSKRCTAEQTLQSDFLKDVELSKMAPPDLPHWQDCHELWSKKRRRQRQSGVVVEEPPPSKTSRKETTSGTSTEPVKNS
Chain of CDK12/CycK (O75909 1-300 partner limits assumed): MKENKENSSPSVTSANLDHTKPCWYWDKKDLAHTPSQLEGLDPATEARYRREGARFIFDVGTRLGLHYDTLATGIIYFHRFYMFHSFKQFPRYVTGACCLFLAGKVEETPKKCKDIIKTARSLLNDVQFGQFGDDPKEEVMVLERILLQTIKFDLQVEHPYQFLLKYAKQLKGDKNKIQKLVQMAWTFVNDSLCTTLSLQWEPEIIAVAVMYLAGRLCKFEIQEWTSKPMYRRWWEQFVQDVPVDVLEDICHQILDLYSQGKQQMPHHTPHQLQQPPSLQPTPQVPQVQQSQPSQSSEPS

SMILES | IC50 (CDK12/CycK) | IC50 [1]
Cc1ccc2[nH]c(CNc3nc(N4CCN(C)CC4)nc4c(C5CC5)cnn34)nc2c1 [Example 210, 8-cyclopropyl-N-[(5-methyl-1H-benzimidazol-2-yl)methyl]-2-(4-methylpiperazin-1-yl)pyrazolo[1,5-a][1,3,5]triazin-4-amine] | > 20000 nM | 4.66 nM
C[C@@H]1CN(c2nc(NCc3nc4c(F)c(F)ccc4[nH]3)n3ncc(C4CC4)c3n2)C[C@H](C)N1 [Example 170, 8-cyclopropyl-N-[(4,5-difluoro-1H-benzimidazol-2-yl)methyl]-2-[(3R,5S)-3,5-dimethylpiperazin-1-yl]pyrazolo[1,5-a][1,3,5]triazin-4-amine] | 3040 nM | 1 nM
Cc1ccc2[nH]c(CNc3nc(N4C[C@@H]5CCCN[C@@H]5C4)nc4c(Br)cnn34)nc2c1 [Example 203, 8-bromo-N-[(5-methyl-1H-benzimidazol-2-yl)methyl]-2-[(4aS, 7aS)-octahydro-6H-pyrrolo[3,4-b]pyridin-6-yl]pyrazolo[1,5-a][1,3,5]triazin-4-amine] | 8800 nM | 1.02 nM
COc1cccc2[nH]c(CNc3nc(N4C[C@H]5C[C@@H]4CO5)nc4c(C5CC5)cnn34)nc12 [Example 198, 8-cyclopropyl-N-[(4-methoxy-1H-benzimidazol-2-yl)methyl]-2-[(1R,4R)-2-oxa-5-azabicyclo[2.2.1]heptan-5-yl]pyrazolo[1,5-a][1,3,5]triazin-4-amine] | 7480 nM | 31.1 nM
CN(C)[C@@H]1CCN(c2nc(NCc3nc4ccccc4[nH]3)n3ncc(Br)c3n2)C1 [Example 178, N-[(1H-benzimidazol-2-yl)methyl]-8-bromo-2-[(3R)-3-(dimethylamino)pyrrolidin-1-yl]pyrazolo[1,5-a][1,3,5]triazin-4-amine] | > 20000 nM | 96.8 nM
CN1CC2CCC(C1)N2c1nc(NCc2nc3ccccc3[nH]2)n2ncc(Br)c2n1 [Example 226, N-(1H-benzimidazol-2-ylmethyl)-8-bromo-2-(3-methyl-3,8-diazabicyclo[3.2.1]octan-8-yl)pyrazolo[1,5-a][1,3,5]triazin-4-amine] | > 20000 nM | 116 nM
Cc1ccc2[nH]c(CNc3nc(N4CCNCC4)nc4c(Br)cnn34)nc2c1 [Example 204, 8-bromo-N-[(5-methyl-1H-benzimidazol-2-yl)methyl]-2-(piperazin-1-yl)pyrazolo[1,5-a][1,3,5]triazin-4-amine] | 4340 nM | 0.869 nM
CN1CCN(c2nc(NCc3nc4ccccc4[nH]3)n3ncc(Br)c3n2)CC1 [Example 18, N-[(1H-benzimidazol-2-yl)methyl]-8-bromo-2-(4-methylpiperazin-1-yl)pyrazolo[1,5-a][1,3,5]triazin-4-amine] | > 15700 nM | 32.4 nM
CN1CCCC2CN(c3nc(NCc4nc5ccccc5[nH]4)n4ncc(Br)c4n3)CC21 (stereo not shown) [Example 231, N-[(1H-benzimidazol-2-yl)methyl]-8-bromo-2-(1-methyloctahydro-6H-pyrrolo[3,4-b]pyridin-6-yl)pyrazolo[1,5-a][1,3,5]triazin-4-amine] | > 20000 nM | 135 nM
OC1CCCN(c2nc(NCc3nc4ccccc4[nH]3)n3ncc(Br)c3n2)C1 (racemic) [Example 16, (rac)-1-(4-{[(1H-benzimidazol-2-yl)methyl]amino}-8-bromopyrazolo[1,5-a][1,3,5]triazin-2-yl)piperidin-3-ol] | 6940 nM | 38.2 nM
Fc1ccc2[nH]c(CNc3nc(N4CCNCC4)nc4c(C5CC5)cnn34)nc2c1 [Example 190, 8-cyclopropyl-N-[(5-fluoro-1H-benzimidazol-2-yl)methyl]-2-(piperazin-1-yl)pyrazolo[1,5-a][1,3,5]triazin-4-amine] | 6170 nM | 6.68 nM
OC1CCN(c2nc(NCc3nc4ccccc4[nH]3)n3ncc(Br)c3n2)CC1 [Example 17, 1-(4-{[(1H-benzimidazol-2-yl)methyl]amino}-8-bromopyrazolo[1,5-a][1,3,5]triazin-2-yl)piperidin-4-ol] | 5720 nM | –
Fc1ccc2[nH]c(CNc3nc(N4CCOCC4)nc4c(C5CC5)cnn34)nc2c1 [Example 181, 8-cyclopropyl-N-[(5-fluoro-1H-benzimidazol-2-yl)methyl]-2-(morpholin-4-yl)pyrazolo[1,5-a][1,3,5]triazin-4-amine] | 1910 nM | 6.1 nM
COc1ccc2[nH]c(CNc3nc(N4C[C@@H](C)N[C@@H](C)C4)nc4c(Br)cnn34)nc2c1 [Example 205, 8-bromo-2-[(3R,5S)-3,5-dimethylpiperazin-1-yl]-N-[(5-methoxy-1 H-benzimidazol-2-yl)methyl]pyrazolo[1,5-a][1,3,5]triazin-4-amine] | 7970 nM | 1.73 nM
OC1(C(F)(F)F)CCN(c2nc(NCc3nc4ccccc4[nH]3)n3ncc(Br)c3n2)C1 (stereo not shown) [Example 200, 1-[4-(1H-benzimidazol-2-ylmethylamino)-8-bromo-pyrazolo[1,5-a][1,3,5]triazin-2-yl]-3-(trifluoromethyl)pyrrolidin-3-ol] | 4330 nM | 95.8 nM
O[C@H]1CCN(c2nc(NCc3nc4ccccc4[nH]3)n3ncc(Br)c3n2)C1 [Example 224, (3S)-1-(4-{[(1H-benzimidazol-2-yl)methyl]amino}-8-bromopyrazolo[1,5-a][1,3,5]triazin-2-yl)pyrrolidin-3-ol] | 15600 nM | 57 nM
CN1CC2CCC1CN2c1nc(NCc2nc3ccccc3[nH]2)n2ncc(Br)c2n1 (stereo not shown) [Example 221, N-(1H-benzimidazol-2-ylmethyl)-8-bromo-2-(5-methyl-2,5-diazabicyclo[2.2.2]octan-2-yl)pyrazolo[1,5-a][1,3,5]triazin-4-amine] | 7980 nM | 13 nM
Cc1ccc2[nH]c(CNc3nc(N4C[C@@H]5CCCN[C@@H]5C4)nc4c(C5CC5)cnn34)nc2c1 [Example 195, 8-cyclopropyl-N-[(5-methyl-1H-benzimidazol-2-yl)methyl]-2-[(4aS,7aS)-octahydro-6H-pyrrolo[3,4-b]pyridin-6-yl]pyrazolo[1,5-a][1,3,5]triazin-4-amine] | 8230 nM | 4.46 nM
Fc1ccc2[nH]c(CNc3nc(N4CCOCC4)nc4c(C5CC5)cnn34)nc2c1F [Example 172, 8-cyclopropyl-N-[(4,5-difluoro-1H-benzimidazol-2-yl)methyl]-2-(morpholin-4-yl)pyrazolo[1,5-a][1,3,5]triazin-4-amine] | 641 nM | 2.43 nM
CC1CN(c2nc(NCc3nc4ccccc4[nH]3)n3ncc(C(C)C)c3n2)CCO1 (racemic) [Example 11, (rac)-N-[(1H-benzimidazol-2-yl)methyl]-2-[2-methylmorpholin-4-yl]-8-(propan-2-yl)pyrazolo[1,5-a][1,3,5]triazin-4-amine] | 3160 nM | –
CC(C)c1cnn2c(NCc3nc4ccccc4[nH]3)nc(Nc3ccccc3)nc12 [Example 13, N^4-[(1H-benzimidazol-2-yl)methyl]-N^2-phenyl-8-(propan-2-yl)pyrazolo[1,5-a][1,3,5]triazine-2,4-diamine] | > 20000 nM | –
CC(C)c1cnn2c(NCc3nc4ccccc4[nH]3)nc(Nc3ccncc3)nc12 [Example 14, N^4-[(1H-benzimidazol-2-yl)methyl]-8-(propan-2-yl)-N^2-(pyridin-4-yl)pyrazolo[1,5-a][1,3,5]triazine-2,4-diamine] | > 16400 nM | –
